Active and inactive are the calls of the source. The calls are words filed in the database; no cut-off is given here.
What was measured:
[1] = tested on: Chromobacterium violaceum; assay: Bacteriostatic activity in Chromobacterium violaceum CV026 at 100 uM; format: ADME, organism-based; settings: in vivo
[2] = tested on: Chromobacterium violaceum; assay: Bactericidal activity in Chromobacterium violaceum CV026 at 1 mM; format: ADME, organism-based; settings: in vivo, 1000 µM
[3] = biological target: T1, CviR transcriptional regulator (Chromobacterium violaceum) (UniProt D3W065); assay: Agonist activity at CviR in Chromobacterium violaceum CV026 assessed as induction of violacein production at 0.001 to 1000 uM after 15 hrs
T1 sequence (whole entry): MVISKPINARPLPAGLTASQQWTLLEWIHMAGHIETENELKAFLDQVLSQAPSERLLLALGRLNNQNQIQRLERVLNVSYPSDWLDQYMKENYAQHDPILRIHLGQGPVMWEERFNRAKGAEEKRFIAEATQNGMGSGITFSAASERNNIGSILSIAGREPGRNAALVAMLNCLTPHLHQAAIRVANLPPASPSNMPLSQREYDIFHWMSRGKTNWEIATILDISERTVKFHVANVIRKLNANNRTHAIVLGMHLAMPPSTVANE

[4] = tested on: Chromobacterium violaceum; assay: Bactericidal activity in Chromobacterium violaceum CV026 at 1000 uM; format: ADME, organism-based; settings: in vivo
[5] = biological target: T1, CviR transcriptional regulator (Chromobacterium violaceum); assay: Inhibition of CviR in Chromobacterium violaceum CV026 assessed as reduction of violacein production at 0.001 to 1000 uM after 15 hrs
[6] = biological target: T1, CviR transcriptional regulator (Chromobacterium violaceum); assay: Inhibition of CviR in Chromobacterium violaceum CV026 assessed as reduction of violacein production at 1 nM after 15 hrs
[7] = biological target: T1, CviR transcriptional regulator (Chromobacterium violaceum); assay: Inhibition of CviR in Chromobacterium violaceum CV026 assessed as reduction of violacein production at 100 uM after 15 hrs
[8] = biological target: T1, CviR transcriptional regulator (Chromobacterium violaceum); assay: Inhibition of CviR in Chromobacterium violaceum CV026 assessed as reduction of violacein production at 1000 uM after 15 hrs
[9] = biological target: T2, CviR transcriptional regulator (Chromobacterium violaceum, UniProt D3W065); assay: Inhibition of CviR in Chromobacterium violaceum CV026 assessed as reduction of violacein production after 15 hrs
T2 sequence (D3W065 whole entry): T1 sequence (whole entry)

[10] = biological target: T1, CviR transcriptional regulator (Chromobacterium violaceum); assay: Inhibition of CviR in Chromobacterium violaceum CV026 assessed as reduction of violacein production at 10 to 1000 uM after 15 hrs
[11] = biological target: T1, CviR transcriptional regulator (Chromobacterium violaceum); assay: Inhibition of CviR in Chromobacterium violaceum CV026 assessed as reduction of violacein production at 0.1 uM after 15 hrs
[12] = biological target: T1, CviR transcriptional regulator (Chromobacterium violaceum); assay: Inhibition of CviR in Chromobacterium violaceum CV026 assessed as reduction of violacein production at 100 nM after 15 hrs

Activity [3]	inhibition [5]	Compound	further results
inactive	–	CCCCCCCCCOc1ccc(C2=NCCN2)cc1	Activity [1]: Toxic; Activity [2]: Toxic
inactive	–	CCCCCCCCCOc1ccc(C2=NCCCN2)cc1	Activity [4]: Toxic
inactive	inactive	CCCCCCCCC(=O)NC1=NCCS1	–
inactive	–	CCCCCCCCC(=O)Nc1ccc(C2=NCCN2)cc1	inhibition [6]: 14%; inhibition [7]: 49%
inactive	inactive	CCCCCCOc1ccccc1	–
inactive	–	CCCCCC(=O)Nc1ccc(C2=NCCN2)cc1	inhibition [11]: Active
inactive	–	CCCCCCCCCC(=O)NC1CCOC1=O (stereo unspecified)	inhibition [12]: 51%
inactive	inactive	CCCCCC(=O)NC1=NCCS1	–
inactive	inactive	O=C(NC1=NCCS1)c1ccccc1	–
inactive	inactive	CCCCCCCCCCCC(=O)NC1=NCCS1	–
inactive	–	O=C(COc1ccc(C2=NCCN2)cc1)Nc1ccc(Cl)cc1	–
inactive	inactive	O=C(NC1=NCCN1)c1ccccc1	–

Compound	Activity [3]	inhibition [5]	further results
CCCCCC(=O)NC1CCOC1=O (stereo unspecified)	inactive	–	–
O=C(Cc1ccccc1)NC1=NCCS1	inactive	–	inhibition [8]: Active; IC50 [9]: 670 µM
CCCCCCOc1ccc(C2=NCCO2)cc1	inactive	–	inhibition [7]: Active; IC50 [9]: 97.4 µM
COc1ccc(NC(=O)COc2ccc(C3=NCCN3)cc2)cc1	inactive	–	inhibition [10]: Active; IC50 [9]: 341 µM
CCCCCCOc1ccc(C2=NCCN2)cc1	inactive	–	inhibition [7]: Active; IC50 [9]: 90.9 µM
O=C(COc1ccc(C2=NCCN2)cc1)Nc1ccccc1	inactive	–	inhibition [10]: Active; IC50 [9]: 66.1 µM
